Source: patent publication US20120003270A1, “6-SUBSTITUTED ISOFLAVONOID COMPOUNDS AND USES THEREOF” (priority 2008, published 2012)

Tests used:
NFκB = NFκB promoter activity in transfected THP-1 cells (beta-lactamase reporter); assay type: cell-based, human; conditions: THP-1 cells, TNFα-stimulated
Description: The assay utilizes a genetically modified THP-1 cell line and GeneBLAzer® beta-lactamase technology (Invitrogen Corp). The human THP-1 monocyte/macrophages contain a stably-transfected beta-lactamase reporter gene under control of the NFkB response element. They respond to stimulation with TNFα, which leads to activation of the NFkB signaling pathway. Co-incubation of cells with TNFα and test material allows quantitative determination of the ability of test material to inhibit TNFα-stimulated beta-lactamase production. An inflammatory index was calculated as the ratio of beta-lactamase product to beta-lactamase substrate.
In brief, genetically modified THP-1 cells were seeded into wells of a 96-well plate (50×10^3 cells/well) in the presence of RPMI 1640 medium (70 μl). TNFα was added to each well (10 μl) to give a final concentration of 7.5 ng/ml. Dialyzed bovine serum was added (10 μl). Test compounds were dissolved in DMSO (10 μL) (5 wells). Each plate contained a no-cell control (4 wells), a no-serum control (4 wells) and two serum controls. Plates were incubated for 5 h at 37° C. to allow for NFkB-stimulated beta-lactamase production. LiveBLAzer™ FRET B/G Substrate (CCF4-AM) substrate was then added to the assay. CCF4-AM is a Förster resonance energy transfer (FRET) based substrate for beta-lactamase developed by Invitrogen Corp. Once CCFA-AM enters a cell, it is converted to negatively charged CCF4 by endogenous esterases. Excitation of this substrate at 409 nm leads to efficient FRET between the coumarin and fluorescein moieties, resulting in a green fluorescence detectable at 530 nm. The presence of beta-lactamase leads to cleavage of CCF4 and results in a loss of FRET, resulting in a robust blue fluorescent signal detectable at 460 nm. Thus, activity of beta-lactamase (a marker of NFkB-promoter activity) is measured as a product to substrate ratio (blue/green fluorescence ratio: 460 nm/530 nm).

THP-1 cells = test: Cytotoxicity in the THP-1 NFκB assay; assay type: cell-based, human; conditions: at active concentrations
iNOS = test: NO synthesis in LPS-stimulated RAW 264.7 (Griess); assay type: cell-based, mouse; conditions: LPS 50 ng/ml, 16 hrs
Description: The mouse macrophage cell line RAW 264.7 was cultured in DMEM supplemented with foetal calf serum (FCS), 2 mM glutamine and 50 U/ml penicillin/streptomycin. Cells were treated with either the compounds of the formula (I) (in 0.025% DMSO) or vehicle alone, and added one hour before 50 ng/ml LPS, which induces iNOS and the production of NO. After incubation for 16 hrs, culture media was collected. Nitrite concentration is a quantitative indicator of NO production and was determined by the Griess Reaction. Briefly, 100 μL of Griess reagent was added to 50 μL of each supernatant in duplicate. The absorbance at 550 nm was measured (Molecular Devices, SpectraMax 250 microplate spectrophotometer, CA, USA), and nitrite concentrations were determined against a standard curve of sodium nitrite.

RAW 264.7 = test: Toxicity in RAW 264.7; assay type: cell-based, mouse
[1] = Free radical scavenging (DPPH); assay type: biochemical; conditions: DPPH 0.1 mM, 20 minutes, 517 nm; read-out: Free radical scavenging ability EC50
Description: The antioxidant (free radical trapping) activity of test compounds was assessed using the stable free radical compound 2,2-diphenyl-1-picrylhydrazyl (DPPH). A stock solution of DPPH was prepared at a concentration of 0.1 mM in ethanol and mixed for 10 minutes prior to use. Compound (1) was reacted with DPPH for 20 minutes, after which time the absorbance at 517 nm was determined. The change in absorbance at 517 nm was compared to a reagent blank (DPPH with ethanol alone). The IC50 value was estimated as the concentration of the test compound that caused a 0.6 change in absorbance (with 1.2 absorbance units representing total scavenging of the DPPH radical).

PGE2 = PGE2 synthesis in RAW 264.7 (ELISA); assay type: cell-based, mouse; conditions: LPS 50 ng/ml, 16 hrs
Description: (§1) The mouse macrophage cell line RAW 264.7 was cultured in DMEM supplemented with foetal calf serum (FCS), 2 mM glutamine and 50 U/ml penicillin/streptomycin. Cells were treated with either test compounds (in 0.025% DMSO) or vehicle alone, and added one hour before 50 ng/ml LPS. After incubation for 16 hrs, culture media was collected for PGE2 or TXB2 measurement by ELISA (Cayman Chemical), and TNFα measurement using an ELISA (Becton Dickinson).

TXA2 = TXA2 synthesis in RAW 264.7 (ELISA); assay type: cell-based, mouse; conditions: LPS 50 ng/ml, 16 hrs
Description: as §1

TNFα = TNFα synthesis in RAW 264.7 (ELISA); assay type: cell-based, mouse; conditions: LPS 50 ng/ml, 16 hrs
Description: as §1

[2] = test system: neonatal fibroblast foreskin (NFF); test: Toxicity in normal cells (MTT), NFF; assay type: cell-based; conditions: Homo sapiens, 120 h, 5 days, top concentration 150 μM, read-out: Normal cell viability IC50
Description: (§2) Human neonatal fibroblast foreskin (NFF—a gift from Dr. Peter Parsons, Queensland Institute of Medical Research) or rabbit kidney (RK-13—a gift from Prof. Miller Whalley, Macquarie University) cells were seeded into 96 well plates and cultured in RPMI supplemented with 10% FCS (CSL, Australia), penicillin (100 U/ml), streptomycin ([…]), L-glutamine (2 mM) and sodium bicarbonate (1.2 g/L) at 37° C. and 5% CO2 for 24 hours until cells had attached and entered log phase of growth. Test compounds were added in serial two-fold dilutions from 150 μM in triplicate and incubated for a further 5 days. MTT was then added to each well, incubated for 3 hours at 37° C., after which the medium was tipped off. Following the addition of DMSO, the absorbance for each well was read on a plate reader. The assays were repeated at least twice.

rabbit kidney (RK-13) = test: Toxicity in normal cells (MTT), RK-13; assay type: cell-based; conditions: Oryctolagus cuniculus, RK-13, 120 h, 5 days, top concentration 150 μM, read-out: Normal cell viability IC50
Description: as §2

COC(=O)CNCc1cc2c(cc1O)OCC(c1ccc(O)cc1)=C2 [Compound (2)]
Effect on promoter activity of NFκB (in words) (NFκB): active at the highest concentration only
Cytotoxicity (THP-1 cells): absence of cytotoxicity
NO (iNOS; 1 μM): 16.41 ± 0.0 µM
NO (iNOS; 10 μM): 10.22 ± 0.15 µM
Effect on the viability of RAW 264.7 cells (RAW 264.7): little effect on the viability
EC50 [1]: > 100 µM
PGE2 (PGE2; 1 μM): 3180.37 ± 127.29 pg/mL
PGE2 (PGE2; 10 μM): 2070.69 ± 168.81 pg/mL
TXB2 (TXA2; 1 μM): 16.71 ± 3.43 pg/mL
TXB2 (TXA2; 10 μM): 17.58 ± 7.99 pg/mL
TNFα (TNFα; 1 μM): 35085.88 ± 2273.16 pg/mL
TNFα (TNFα; 10 μM): 46065.55 ± 1234.32 pg/mL
IC50 [2]: 145 ± 8.1 µM
IC50 (rabbit kidney (RK-13)): > 150 µM
